Data on five molecules can be found in patent US20240159675A1, “METHODS AND DEVICES FOR RATIOMETRIC CHARACTERIZATION OF FLUORESCENT PARTICLES” (NANOTEMPER TECHNOLOGIES GMBH, priority 2021, published 2024).

Where two headings read alike, the source gives them in different places. {Cy5} = Cy5 dye label

Series [1] concerns complementary 11-mer DNA strand labeled with Cy5. Put plainly: Kd-over-time curve of DNA hybridization, dual-emission configuration with IR laser (Example 10). In kind it is binding. Here is the method:
For the DNA hybridization, a 16-point 1-to-1 dilution series of the unlabeled 11-mer (sequence: 5′ CCT GAA GTC C 3′) was prepared. The complementary 11-mer (sequence: 5′ GGA CTT CAG G 3′) was fluorescently labeled at its 5′ end with Cy5 and added in equal amounts to the dilution series to obtain a final sample concentration of 10 nM. The highest concentration of the unlabeled 11-mer corresponded to 100 μM.
(§1) At the timepoint 0 s, an IR laser was switched on. The response of the fluorescence intensity was simultaneously measured for 6 s (aptamer), respectively 21 s (DNA hybridization).
(§2) From above it is evident that information on the binding interaction (e.g. Kd) can be derived from any “vertical” slice in time along the ratiometric traces, when the method of the present invention is used in combination with fast IR laser heating. A new type of curve, which can be described as Kd-over-time curve can be generated. From this curve not only information on the thermodynamics but also on the binding kinetics of the interaction can be determined. In particular, if the equilibration kinetics of an interaction is slower than the heating with the IR laser, the Kd-over-time curve will show a characteristic lag.
(§3) The Kd-over-time curves provided in FIG. 23 reveal three different interactions with different dissociation constants Kd and binding kinetics.

The target of series [2] is Cy5-labeled DNA aptamer. Put plainly: Ratiometric measurement with a standard fluorescence microplate-reader, AMP dilution series (Example 1). It is filed as binding. The note with it: 20 nM Cy5-labeled DNA aptamer, read-out: dissociation constant (Kd), midpoint of dose-response curve. The procedure:
(§4) A 14-point 1-to-1 dilution series of unlabeled AMP was prepared. The DNA aptamer was fluorescently labeled with Cy5 and added in equal amounts to the AMP dilution series to obtain a final sample concentration of 20 nM. The highest concentration of AMP corresponded to 5 mM. For measurements with a standard fluorescence microplate-reader (CLARIOstar, BMG Labtech) 95 […] of the sample were loaded into a micro-well plate.
(§5) For the microplate-reader measurements, the sample was excited at a wavelength of 590 nm and the emission was first detected at a wavelength of 628 nm to 652 nm. Then, the sample was again excited at the 590 nm wavelength and the emission was detected at a wavelength of 665 nm to 725 nm. Three subsequent fluorescence intensity measurements of the dilution series were run.
In order to characterize the interaction with the fluorescence microplate-reader, the ratio between the fluorescence intensities per well was calculated manually by using a commercially available calculation tool (Microsoft Excel). The fluorescence detected at the higher wavelength was divided by the fluorescence detected at the lower wavelength. The sigmoidal dose-response curve provided in FIG. 10A starts at a ratio value of approx. 0.95 and ends at a ratio value of approx. 0.90. The midpoint, which corresponds to the dissociation constant (Kd) of the interaction, lies at approx. 20-30 μM. […]

For series [3], the target named is Cy5-labeled DNA aptamer for adenosine. Put plainly: Kd-over-time curve, dual-emission configuration with IR laser, AMP (Example 10). It is filed as binding. The note with it: FIG. 23A. The procedure: For the aptamer, a 12-point 1-to-1 dilution series of unlabeled AMP was prepared. The DNA aptamer was fluorescently labeled with Cy5 and added in equal amounts to the AMP dilution series to obtain a final sample concentration of 20 nM. The highest concentration of AMP corresponded to 2 mM.
as §1, §2, §3

The target in series [4] is Cy5-labeled DNA aptamer. Put plainly: Ratiometric measurement with the dual-emission configuration, AMP dilution series (Example 1). In kind it is binding. The settings on record: 20 nM Cy5-labeled DNA aptamer, read-out: Kd of the interaction. Here is the method:
as §4, §5
When using lower sample concentrations, i.e. 250 pM, for the ratiometric measurement according to the present invention, the signal-to-noise ratio (S/N) is still very good (19.8) and a Kd of the interaction can be easily determined (FIG. 10C).

The target of series [5] is T1, lysozyme (Gallus gallus, UniProt P00698). Kind of series: Emission spectrum of fluorescently labeled lysozyme alone and in complex with NAG3. In kind it is binding. The settings on record: corresponding to the spectral shift (Table 3). The source says: (§6) Shifts of 3 nm and of approx. 500 pm correspond to relative changes in the fluorescence ratio of about 37.3% and 5.5%, respectively (Table 3).

Series [6] concerns the target T1, lysozyme. Put plainly: Ratio 350 nm/330 nm of intrinsic tryptophan fluorescence during thermal melting ramp 35° C. to 95° C. It is filed as binding. The note with it: increasing / very high concentrations of NAG3, unlabeled lysozyme. The procedure:
To monitor the temperature of denaturation, each sample is heated from 35° C. to 95° C. […] This shift cannot be used to extract the dissociation constant of this interaction.
The alterations in the fluorescence spectrum are independent of the nature of the fluorescent label, i.e. they equally appear in intrinsic as well as extrinsic fluorescent labels. However, the extend of the alterations in the fluorescence spectrum may be increased for certain classes of labels.

In series [7] the target is fluorescently labeled streptavidin (Streptomyces avidinii, UniProt P22629). Kind of series: Ratiometric dual-emission dose-response, biotin dilution series (Example 4). The note with it: 20 nM streptavidin. In kind it is binding. Here is the method:
A 12-point 1-to-1 dilution series of unlabeled biotin was prepared. […] The highest concentration of biotin corresponded to 500 nM.
As evident from the dose-response curve shown in FIG. 17, the ratio changed from a value of approx. 2.2 to approx. 1.2 when streptavidin is unbound or in complex with biotin, respectively. Since the target concentration is much higher than the Kd, a characteristic kink at the stoichiometry point at a concentration of 80 nM biotin can be observed.

For series [8], the target named is streptavidin (Streptomyces avidinii, UniProt P22629). Kind of series: Emission spectrum of fluorescently labeled streptavidin alone and in complex with biotin. In kind it is binding.
Text: as §6

The nature of series [9]: Fluorescence ratio of labeled protein over time at room temperature (Example 9). It is filed as physicochemical. The settings on record: 20 nM labeled protein, 0, 3, 8 and 19 minutes. Here is the method:
The labeled protein was then diluted to a concentration of 20 nM and loaded into a polymer-coated borosilicate glass capillary (Monolith NT.115 Premium Capillaries, MO-K025, NanoTemper Technologies).
The sample was excited at a wavelength of 591 nm. […] Measurements were performed directly after dilution (t=0 min) and again after 3, 8 and 19 minutes inside the capillary.

Chain of streptavidin (P22629 25-183, species assumed): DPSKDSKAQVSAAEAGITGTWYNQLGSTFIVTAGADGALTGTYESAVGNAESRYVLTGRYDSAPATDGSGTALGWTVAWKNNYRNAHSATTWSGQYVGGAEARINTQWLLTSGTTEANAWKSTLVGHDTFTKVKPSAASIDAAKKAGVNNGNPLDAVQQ
Chain of fluorescently labeled streptavidin (P22629 25-183, species assumed): as above
T1 sequence (P00698 19-147): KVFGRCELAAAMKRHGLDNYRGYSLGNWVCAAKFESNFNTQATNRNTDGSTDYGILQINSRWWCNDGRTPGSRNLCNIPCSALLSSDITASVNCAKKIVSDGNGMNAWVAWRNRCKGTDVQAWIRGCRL

Usually Kd stands for the equilibrium constant for the complex coming apart. In the case of “11-mer complementary DNA strands: unlabeled 11-mer (5′ CCT GAA GTC C 3′) titrated against complementary 11-mer (5′ GGA CTT CAG G 3′) labeled at 5′ end with Cy5 (chain 1 CCTGAAGTCC; chain 2 GGACTTCAGG; chain 1: DNA, backbone not given here; chain 2: DNA, 5' {Cy5}, backbone not given here)”, the koff entry in series [1] (measured at 22° C., FIG. 23C) is “smaller than 0.01 s^−1”; in series [1] (measured at 32° C., estimated, FIG. 23B), “approx. 1 s^−1”. Moreover, the equilibrium dissociation constant (Kd) is approximately 0.005 µM in series [1] (measured at 22° C., FIG. 23C, read-out: Kd); approximately 0.01 µM in [1] (sample temperature 22° C., FIG. 24B, read-out: Kd value at start of IR laser on-time); approximately 0.5 µM in [1] (temperature after IR laser heating approx. 32° C., FIG. 24B, read-out: Kd value after IR laser heating).
For the molecule `Nc1ncnc2c1ncn2[C@@H]1O[C@H](COP(=O)(O)O)[C@@H](O)[C@H]1O` [AMP, adenosine monophosphate], the Kd in series [2] is 20 to 30 µM; in series [3] (Kd-over-time curve), approximately 30 µM; in series [4], 39.3 µM. For the same molecule, the koff result in series [3] (estimated from Kd-over-time curve) was “greater than 10 s^−1”.
On to `CC(=O)N[C@H]1[C@H](O[C@H]2[C@H](O)[C@@H](NC(C)=O)C(O)O[C@@H]2CO)O[C@H](CO)[C@@H](O[C@@H]2O[C@H](CO)[C@@H](O)[C@H](O)[C@H]2NC(C)=O)[C@@H]1O` (stereo partly drawn) [NAG3, Tri-N-acetyl-D-glucosamine], for which, in [5], the “relative change in the fluorescence ratio” value is approximately 5.5%. Also, in series [6], the “effect on thermal denaturation of lysozyme” value was “thermal stabilization”.
As to `O=C(O)CCCC[C@@H]1SC[C@@H]2NC(=O)N[C@@H]21` [biotin], the “stoichiometry point (kink in dose-response curve)” value in [7] (concentration of biotin) was determined as 80 nM. The “ratio 670 nm/650 nm of streptavidin in complex with biotin” value in series [7] (unbound approx. 2.2) is recorded as “approx. 1.2”. Also, the “relative change in the fluorescence ratio” value in series [8] (corresponding to the spectral shift (Table 3)) is listed as “about 37.3%”. In addition, the “shift of the maximum emission peak wavelength” value in series [8] (streptavidin 200 nM, biotin 2 μM, excitation 605 nm) is 3 nm.
On to “Mitogen-activated protein kinase 14 (p38-α): Mitogen-activated protein kinase 14, fluorescently labeled with Protein Labeling Kit RED-NHS 2nd Generation”, for which the “stability at room temperature (fluorescence ratio over about 20 minutes)” value in [9] was “not stable at room temperature but gradually denatures”.
